Data taken from the CheMixHub viscosity set.
Several values for one entry are separate records, joined by “and”; a condition that tells them apart may be missing. Identical values can stand only once.

Assay: xn = mol fraction of the nth substance listed

CC=Cc1ccc(O)c(OC)c1 + CCCCCOC(C)=O
298.15 K, 101 kPa
Details | viscosity [mPa·s]
x1 = 0.062 | 0.92
x1 = 0.119 | 1.06

CC(C)CCl + CCCCO
viscosity [mPa·s], 101.33 kPa
Details | x1 = 0.1061 | x1 = 0.207 | x1 = 0.3058 | x1 = 0.4036 | x1 = 0.4999 | x1 = 0.6059 | x1 = 0.7007 | x1 = 0.7972 | x1 = 0.8971
298.15 K | 1.981 | 1.554 | 1.233 | 0.9932 | 0.8229 | 0.6801 | 0.5857 | 0.515 | 0.4612
313.15 K | 1.395 | 1.121 | 0.9144 | 0.7548 | 0.6405 | 0.5441 | 0.4768 | 0.4261 | 0.3888

CCCCCCC + CCCCO
viscosity [mPa·s]
Details | 298.15 K | 308.15 K
100 kPa, x2 = 0.1602 | 0.4667 | –
100 kPa, x2 = 0.3421 | 0.6085 | –
100 kPa, x2 = 0.5006 | 0.8545 | –
100 kPa, x2 = 0.6598 | 1.191 | –
100 kPa, x2 = 0.8398 | 1.747 | –
101.33 kPa, x2 = 0.077 | 0.421 | 0.3698
101.33 kPa, x2 = 0.1523 | 0.456 | 0.392
101.33 kPa, x2 = 0.2853 | 0.5468 | 0.4571
101.33 kPa, x2 = 0.4094 | 0.667 | 0.5432
101.33 kPa, x2 = 0.5024 | 0.787 | 0.6232
101.33 kPa, x2 = 0.6136 | 0.9824 | 0.7769
101.33 kPa, x2 = 0.7055 | 1.204 | 0.9444
101.33 kPa, x2 = 0.7866 | 1.453 | 1.136
101.33 kPa, x2 = 0.8595 | 1.751 | 1.363
101.33 kPa, x2 = 0.8998 | 1.942 | 1.515
101.33 kPa, x2 = 0.9352 | 2.144 | 1.666
101.33 kPa, x2 = 0.9675 | 2.342 | 1.821

CCCCCCCC + CCCCO
298.15 K, 101.33 kPa
Details | viscosity [mPa·s]
x1 = 0.0832 | 2.013
x1 = 0.1173 | 1.84
x1 = 0.1519 | 1.681
x1 = 0.2113 | 1.443
x1 = 0.304 | 1.152
x1 = 0.3599 | 1.017
x1 = 0.4942 | 0.788
x1 = 0.6053 | 0.676
x1 = 0.7044 | 0.615
x1 = 0.8459 | 0.555

CCCCCO + CCCCO
viscosity [mPa·s], 101.33 kPa
Details | x2 = 0.1315 | x2 = 0.278 | x2 = 0.4762 | x2 = 0.5662 | x2 = 0.8222 | x2 = 0.9381
293.15 K | 3.867 | 3.7 | 3.489 | 3.392 | 3.127 | 3.013
298.15 K | 3.353 | 3.232 | 3.038 | 2.959 | 2.738 | 2.642

CN(C)C=O + CCCCO
Details | viscosity [mPa·s]
298.15 K, 101 kPa, x1 = 0.5035 | 1.381

ClC(Cl)=C(Cl)Cl + CCCCO
Details | viscosity [mPa·s]
298.15 K, 101.3 kPa, x1 = 0.6759 | 1.045

O=[N+]([O-])c1ccccc1 + CCCCO
viscosity [mPa·s]
Details | 298.15 K | 303.15 K | 308.15 K | 318.15 K
101 kPa, x1 = 0.2 | – | – | 1.58 | 1.27
101 kPa, x1 = 0.4 | – | – | 1.411 | 1.128
101 kPa, x1 = 0.6 | – | – | 1.339 | 1.109
101 kPa, x1 = 0.8 | – | – | 1.35 | 1.147
101 kPa, x1 = 0.9 | – | – | 1.403 | 1.196
101 kPa, x1 = 0.95 | – | – | 1.453 | 1.252
101.33 kPa, x1 = 0.0625 | 2.311 | 2.075 | – | –
101.33 kPa, x1 = 0.1311 | 2.142 | 1.878 | – | –
101.33 kPa, x1 = 0.2051 | 1.954 | 1.739 | – | –
101.33 kPa, x1 = 0.2885 | 1.814 | 1.611 | – | –
101.33 kPa, x1 = 0.376 | 1.711 | 1.559 | – | –
101.33 kPa, x1 = 0.4747 | 1.65 | 1.423 | – | –
101.33 kPa, x1 = 0.5846 | 1.589 | 1.446 | – | –
101.33 kPa, x1 = 0.7007 | 1.625 | 1.476 | – | –
101.33 kPa, x1 = 0.8442 | 1.658 | 1.509 | – | –

c1ccccc1 + CCCCO
Details | viscosity
293.15 K, 101.33 kPa, x2 = 0.2 | 0.714 mPa·s and 0.714 mPa·s
293.15 K, 101.33 kPa, x2 = 0.4 | 0.898 mPa·s
293.15 K, 101.33 kPa, x2 = 0.5 | 1.054 mPa·s and 1.054 mPa·s
293.15 K, 101.33 kPa, x2 = 0.6 | 1.279 mPa·s
293.15 K, 101.33 kPa, x2 = 0.8 | 1.92 mPa·s
298.15 K, 101 kPa, x1 = 0.082 | 2.158 mPa·s
298.15 K, 101 kPa, x1 = 0.151 | 1.88 mPa·s
298.15 K, 101 kPa, x1 = 0.254 | 1.511 mPa·s
298.15 K, 101 kPa, x1 = 0.345 | 1.277 mPa·s
298.15 K, 101 kPa, x1 = 0.52 | 0.919 mPa·s
298.15 K, 101 kPa, x1 = 0.678 | 0.754 mPa·s
298.15 K, 101 kPa, x1 = 0.841 | 0.63 mPa·s
298.15 K, 101 kPa, x1 = 0.915 | 0.601 mPa·s
298.15 K, 101 kPa, x2 = 0.05 | 0.604 mPa·s
298.15 K, 101 kPa, x2 = 0.1 | 0.62 mPa·s
298.15 K, 101 kPa, x2 = 0.16 | 0.64 mPa·s
298.15 K, 101 kPa, x2 = 0.21 | 0.664 mPa·s
298.15 K, 101 kPa, x2 = 0.41 | 0.842 mPa·s
298.15 K, 101 kPa, x2 = 0.51 | 1.006 mPa·s
298.15 K, 101 kPa, x2 = 0.61 | 1.178 mPa·s
298.15 K, 101 kPa, x2 = 0.81 | 1.684 mPa·s
298.15 K, 101.33 kPa, x2 = 0.2 | 0.655 mPa·s
298.15 K, 101.33 kPa, x2 = 0.216 | 0.657 mPa·s
298.15 K, 101.33 kPa, x2 = 0.409 | 0.824 mPa·s
298.15 K, 101.33 kPa, x2 = 0.604 | 1.119 mPa·s
298.15 K, 101.33 kPa, x2 = 0.808 | 1.71 mPa·s
303 K, 101.3 kPa, x1 = 0.1035 | 1.9 mPa·s
303 K, 101.3 kPa, x1 = 0.2024 | 1.601 mPa·s
303 K, 101.3 kPa, x1 = 0.3037 | 1.344 mPa·s
303 K, 101.3 kPa, x1 = 0.4 | 1.145 mPa·s
303 K, 101.3 kPa, x1 = 0.5047 | 0.9759 mPa·s
303 K, 101.3 kPa, x1 = 0.5931 | 0.8562 mPa·s
303 K, 101.3 kPa, x1 = 0.7016 | 0.7412 mPa·s
303 K, 101.3 kPa, x1 = 0.766 | 0.6921 mPa·s
303 K, 101.3 kPa, x1 = 0.8859 | 0.611 mPa·s
303.15 K, 101 kPa, x1 = 0.082 | 1.918 mPa·s
303.15 K, 101 kPa, x1 = 0.151 | 1.668 mPa·s
303.15 K, 101 kPa, x1 = 0.254 | 1.354 mPa·s
303.15 K, 101 kPa, x1 = 0.345 | 1.145 mPa·s
303.15 K, 101 kPa, x1 = 0.52 | 0.838 mPa·s
303.15 K, 101 kPa, x1 = 0.678 | 0.694 mPa·s
303.15 K, 101 kPa, x1 = 0.841 | 0.587 mPa·s
303.15 K, 101 kPa, x1 = 0.915 | 0.564 mPa·s
303.15 K, 101.33 kPa, x2 = 0.2 | 0.604 mPa·s
303.15 K, 101.33 kPa, x2 = 0.4 | 0.746 mPa·s
303.15 K, 101.33 kPa, x2 = 0.5 | 0.864 mPa·s
303.15 K, 101.33 kPa, x2 = 0.6 | 1.021 mPa·s
303.15 K, 101.33 kPa, x2 = 0.8 | 1.49 mPa·s
308.15 K, 101 kPa, x1 = 0.082 | 1.702 mPa·s
308.15 K, 101 kPa, x1 = 0.151 | 1.49 mPa·s
308.15 K, 101 kPa, x1 = 0.254 | 1.209 mPa·s
308.15 K, 101 kPa, x1 = 0.345 | 1.032 mPa·s
308.15 K, 101 kPa, x1 = 0.52 | 0.764 mPa·s
308.15 K, 101 kPa, x1 = 0.678 | 0.64 mPa·s
308.15 K, 101 kPa, x1 = 0.841 | 0.549 mPa·s
308.15 K, 101 kPa, x1 = 0.915 | 0.529 mPa·s
308.15 K, 101.33 kPa, x2 = 0.2 | 0.562 mPa·s and 0.562 mPa·s
308.15 K, 101.33 kPa, x2 = 0.216 | 0.564 mPa·s
308.15 K, 101.33 kPa, x2 = 0.4 | 0.687 mPa·s
308.15 K, 101.33 kPa, x2 = 0.409 | 0.691 mPa·s
308.15 K, 101.33 kPa, x2 = 0.5 | 0.791 mPa·s and 0.791 mPa·s
308.15 K, 101.33 kPa, x2 = 0.6 | 0.924 mPa·s
308.15 K, 101.33 kPa, x2 = 0.604 | 0.911 mPa·s
308.15 K, 101.33 kPa, x2 = 0.8 | 1.335 mPa·s
308.15 K, 101.33 kPa, x2 = 0.808 | 1.353 mPa·s
313.15 K, 101 kPa, x1 = 0.082 | 1.51 mPa·s
313.15 K, 101 kPa, x1 = 0.151 | 1.336 mPa·s
313.15 K, 101 kPa, x1 = 0.254 | 1.086 mPa·s
313.15 K, 101 kPa, x1 = 0.345 | 0.934 mPa·s
313.15 K, 101 kPa, x1 = 0.52 | 0.702 mPa·s
313.15 K, 101 kPa, x1 = 0.678 | 0.593 mPa·s
313.15 K, 101 kPa, x1 = 0.841 | 0.513 mPa·s
313.15 K, 101 kPa, x1 = 0.915 | 0.494 mPa·s
318.15 K, 101 kPa, x1 = 0.082 | 1.351 mPa·s
318.15 K, 101 kPa, x1 = 0.151 | 1.195 mPa·s
318.15 K, 101 kPa, x1 = 0.254 | 0.979 mPa·s
318.15 K, 101 kPa, x1 = 0.345 | 0.847 mPa·s
318.15 K, 101 kPa, x1 = 0.52 | 0.645 mPa·s
318.15 K, 101 kPa, x1 = 0.678 | 0.553 mPa·s
318.15 K, 101 kPa, x1 = 0.841 | 0.48 mPa·s
318.15 K, 101 kPa, x1 = 0.915 | 0.465 mPa·s

CCCCC(C)=O + CCCCOC(C)=O
298.15 K, 101.33 kPa
Details | viscosity [mPa·s]
x2 = 0.1073 | 0.595
x2 = 0.1861 | 0.601
x2 = 0.3117 | 0.611
x2 = 0.4115 | 0.62
x2 = 0.5224 | 0.63
x2 = 0.6318 | 0.64
x2 = 0.7471 | 0.649
x2 = 0.8669 | 0.663

CCCCCCCCCCCCCC + CCCCOC(C)=O
298.15 K, 101.3 kPa
Details | viscosity [mPa·s]
x2 = 0.1284 | 1.825
x2 = 0.2404 | 1.622
x2 = 0.3362 | 1.467
x2 = 0.4227 | 1.339
x2 = 0.5018 | 1.23
x2 = 0.5367 | 1.183
x2 = 0.5715 | 1.142
x2 = 0.6959 | 0.9335
x2 = 0.8024 | 0.8736
x2 = 0.8903 | 0.7842
x2 = 0.948 | 0.7283

O=[N+]([O-])c1ccccc1 + CCCCOC(C)=O
viscosity [mPa·s], 101 kPa
Details | 298.15 K | 308.15 K
x2 = 0.0477 | 1.576 | 1.399
x2 = 0.151 | 1.23 | 1.152
x2 = 0.2493 | 1.006 | 0.979
x2 = 0.35 | 0.848 | 0.849
x2 = 0.4488 | 0.743 | 0.755
x2 = 0.5 | 0.704 | 0.717
x2 = 0.5514 | 0.672 | 0.685
x2 = 0.6512 | 0.632 | 0.637
x2 = 0.7484 | 0.616 | 0.607
x2 = 0.8504 | 0.622 | 0.591
x2 = 0.9435 | 0.648 | 0.589
